In ChEMBL document CHEMBL1131036, “Structure-based design, synthesis, and biological evaluation of irreversible human rhinovirus 3C protease inhibitors. 1. Michael acceptor structure-activity studies” (J Med Chem, 1998):
pEC50: −log10 of the molar value. The source made the active and inactive calls. No cut-off for these calls is given here.

How the values were obtained:
[1] = Half-life in rat plasma; assay type: ADME, organism-based
HeLa [2] = assay: Formazan production in HRV-14 virus infected cells; assay type: functional, cell-based; conditions: Homo sapiens
HeLa [3] = assay: Concentration of compound that decreased the percentage of formazan production in treated HRV-14 virus infected cells to that produced in uninfected cells; assay type: functional; conditions: Homo sapiens
[4] = target: T1, Human rhinovirus A protease (Human rhinovirus sp.) (UniProt Q4U254); assay: Catalytic rate constant (Kobs/[I]) evaluated against human rhinovirus (HRV) serotype 14 3C Protease (3CP); conditions: Human rhinovirus B (HRV-14)
T1 sequence (whole entry): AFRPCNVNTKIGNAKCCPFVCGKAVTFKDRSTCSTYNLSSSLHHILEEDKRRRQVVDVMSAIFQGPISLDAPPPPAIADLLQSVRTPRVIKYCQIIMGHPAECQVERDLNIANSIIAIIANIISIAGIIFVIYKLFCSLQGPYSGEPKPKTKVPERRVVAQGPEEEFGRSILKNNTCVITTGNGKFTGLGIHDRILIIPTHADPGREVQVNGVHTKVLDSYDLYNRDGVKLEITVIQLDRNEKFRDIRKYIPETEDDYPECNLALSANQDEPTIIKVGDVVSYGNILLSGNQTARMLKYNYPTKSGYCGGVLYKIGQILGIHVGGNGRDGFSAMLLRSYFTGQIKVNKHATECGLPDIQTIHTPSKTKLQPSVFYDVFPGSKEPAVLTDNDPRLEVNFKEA

Human rhinovirus sp. [5] = assay: Inhibitory activity of compound towards partial or complete loss of 3C protease (HRV-14) activity in presence of 5 mM dithiothreitol (DTT); No inhibition; assay type: functional, organism-based
Human rhinovirus sp. [6] = assay: Inhibitory activity of compound towards partial or complete loss of 3C protease (HRV-14) activity in presence of 5 mM dithiothreitol (DTT); inhibition observed; assay type: functional, organism-based

| Compound | half-life [1] | pEC50 (HeLa [2]) | CC50 (HeLa [3]) | K obs / 1 [4] | inhibition (Human rhinovirus sp. [5]) | inhibition (Human rhinovirus sp. [6]) |
| --- | --- | --- | --- | --- | --- | --- |
| CCOC(=O)/C(C)=C/[C@H](CCC(N)=O)NC(=O)[C@H](Cc1ccccc1)NC(=O)[C@H](CC(C)C)NC(=O)OCc1ccccc1 | 20 min | 5.52 | > 320 µM | 7300 M⁻¹ s⁻¹ | – | – |
| CC(C)C[C@H](NC(=O)OCc1ccccc1)C(=O)N[C@@H](Cc1ccccc1)C(=O)N[C@H](/C=C/C(=O)N1CCc2cc([N+](=O)[O-])ccc21)CCC(N)=O | – | 4.77 | > 320 µM | 12000 M⁻¹ s⁻¹ | inactive | – |
| COC(=O)/C=C/[C@H](CCC(N)=O)NC(=O)[C@H](Cc1ccccc1)NC(=O)[C@H](CC(C)C)NC(=O)OCc1ccccc1 | – | 5.89 | > 320 µM | 20000 M⁻¹ s⁻¹ | – | – |
| CC(C)C[C@H](NC(=O)OCc1ccccc1)C(=O)N[C@@H](Cc1ccccc1)C(=O)N[C@H](/C=C/C(=O)c1ccccc1)CCC(N)=O | – | 5.40 | 16 µM | 500000 M⁻¹ s⁻¹ | – | – |
| CC(C)C[C@H](NC(=O)OCc1ccccc1)C(=O)N[C@@H](Cc1ccccc1)C(=O)N[C@H](/C=C/C(=O)N1CCCC1=O)CCC(N)=O | – | 6.05 | > 320 µM | 126000 M⁻¹ s⁻¹ | – | Yes |
| CC(C)C[C@H](NC(=O)OCc1ccccc1)C(=O)N[C@@H](Cc1ccccc1)C(=O)N[C@H](/C=C/C(=O)N(C)C)CCC(N)=O | – | 4.25 | > 100 µM | 1300 M⁻¹ s⁻¹ | – | – |
| CC(C)C[C@H](NC(=O)OCc1ccccc1)C(=O)N[C@@H](Cc1ccccc1)C(=O)N[C@H](/C=C/C(=O)N1CCCc2ccccc21)CCC(N)=O | – | 3.90 | > 320 µM | 1000 M⁻¹ s⁻¹ | – | – |
| CC(C)C[C@H](NC(=O)OCc1ccccc1)C(=O)N[C@@H](Cc1ccccc1)C(=O)N[C@H](/C=C/C(=O)N1CCc2ccc(S(C)(=O)=O)cc21)CCC(N)=O | – | < 3.49 | > 320 µM | 12900 M⁻¹ s⁻¹ | – | – |
| CC(C)C[C@H](NC(=O)OCc1ccccc1)C(=O)N[C@@H](Cc1ccccc1)C(=O)N[C@H](/C=C/C(=O)OCC(C)(C)C)CCC(N)=O | – | 6.30 | > 100 µM | 9800 M⁻¹ s⁻¹ | – | – |
| CC(C)C[C@H](NC(=O)OCc1ccccc1)C(=O)N[C@@H](Cc1ccccc1)C(=O)N[C@H](/C=C1\CCOC1=O)CCC(N)=O | > 240 min | 5.28 | > 320 µM | 10900 M⁻¹ s⁻¹ | – | – |
| CC(C)C[C@H](NC(=O)OCc1ccccc1)C(=O)N[C@@H](Cc1ccccc1)C(=O)N[C@H](/C=C/C(=O)N1CCN(C)C1=O)CCC(N)=O | – | 5.30 | > 320 µM | 312000 M⁻¹ s⁻¹ | – | Yes |
| CC(C)C[C@H](NC(=O)OCc1ccccc1)C(=O)N[C@@H](Cc1ccccc1)C(=O)N[C@H](/C=C/C(=O)O)CCC(N)=O | – | < 4.00 | > 320 µM | 30 M⁻¹ s⁻¹ | – | – |
| CC(C)C[C@H](NC(=O)OCc1ccccc1)C(=O)N[C@@H](Cc1ccccc1)C(=O)N[C@H](/C=C/C(=O)n1ccc2ccccc21)CCC(N)=O | – | 5.74 | 29 µM | 53000 M⁻¹ s⁻¹ | – | – |
| CC(C)C[C@H](NC(=O)OCc1ccccc1)C(=O)N[C@@H](Cc1ccccc1)C(=O)N[C@H](/C=C/C(=O)N1CCc2cc(Cl)ccc21)CCC(N)=O | – | 5.25 | 56 µM | 450 M⁻¹ s⁻¹ | – | – |
| CC(C)C[C@H](NC(=O)OCc1ccccc1)C(=O)N[C@@H](Cc1ccccc1)C(=O)N[C@H](/C=C/C(=O)OC1CCCCC1)CCC(N)=O | 4 min | 5.44 | > 320 µM | 3700 M⁻¹ s⁻¹ | – | – |
| CC(C)C[C@H](NC(=O)OCc1ccccc1)C(=O)N[C@@H](Cc1ccccc1)C(=O)N[C@H](/C=C/C(=O)N1CCc2ccc(S(=O)(=O)N3CCCC3)cc21)CCC(N)=O | – | < 3.49 | > 320 µM | 22700 M⁻¹ s⁻¹ | – | – |
| CON(C)C(=O)/C=C/[C@H](CCC(N)=O)NC(=O)[C@H](Cc1ccccc1)NC(=O)[C@H](CC(C)C)NC(=O)OCc1ccccc1 | 12 min | 5.40 | > 100 µM | 5900 M⁻¹ s⁻¹ | – | – |
| CC(C)C[C@H](NC(=O)OCc1ccccc1)C(=O)N[C@@H](Cc1ccccc1)C(=O)N[C@H](/C=C/[N+](=O)[O-])CCC(N)=O | – | < 4.00 | 100 µM | 500000 M⁻¹ s⁻¹ | – | Yes |
| CC(C)C[C@H](NC(=O)OCc1ccccc1)C(=O)N[C@@H](Cc1ccccc1)C(=O)N[C@H](/C=C/C(=O)N1CCc2cccc(S(C)(=O)=O)c21)CCC(N)=O | – | < 3.49 | > 320 µM | < 1000 M⁻¹ s⁻¹ | – | – |
| CC(C)C[C@H](NC(=O)OCc1ccccc1)C(=O)N[C@@H](Cc1ccccc1)C(=O)N[C@H](/C=C/c1ccccn1)CCC(N)=O | – | < 4.00 | > 100 µM | 120 M⁻¹ s⁻¹ | – | – |

| Compound | half-life [1] | pEC50 (HeLa [2]) | CC50 (HeLa [3]) | K obs / 1 [4] | inhibition (Human rhinovirus sp. [5]) | inhibition (Human rhinovirus sp. [6]) |
| --- | --- | --- | --- | --- | --- | --- |
| CCN(CC)c1ccc(C(=O)/C=C/[C@H](CCC(N)=O)NC(=O)[C@H](Cc2ccccc2)NC(=O)[C@H](CC(C)C)NC(=O)OCc2ccccc2)cc1 | – | < 4.60 | 25 µM | 4500 M⁻¹ s⁻¹ | – | – |
| CC(C)C[C@H](NC(=O)OCc1ccccc1)C(=O)N[C@@H](Cc1ccccc1)C(=O)N[C@H](/C=C/C(=O)N1CCc2ccc([N+](=O)[O-])cc21)CCC(N)=O | – | < 3.49 | > 320 µM | 29000 M⁻¹ s⁻¹ | inactive | – |
| CC(C)C[C@H](NC(=O)OCc1ccccc1)C(=O)N[C@@H](Cc1ccccc1)C(=O)N[C@H](/C=C/C(=O)Nc1ccccc1)CCC(N)=O | – | < 3.49 | > 320 µM | 200 M⁻¹ s⁻¹ | – | – |
| CC(C)C[C@H](NC(=O)OCc1ccccc1)C(=O)N[C@@H](Cc1ccccc1)C(=O)N[C@H](/C=C/C(=O)c1ccco1)CCC(N)=O | – | 5.62 | 19 µM | 460000 M⁻¹ s⁻¹ | – | Yes |
| CC(C)C[C@H](NC(=O)OCc1ccccc1)C(=O)N[C@@H](Cc1ccccc1)C(=O)N[C@H](/C=C/C(=O)N1CCc2ccc(S(=O)(=O)N(C)C)cc21)CCC(N)=O | – | < 4.00 | – | 28300 M⁻¹ s⁻¹ | inactive | – |
| CC(C)C[C@H](NC(=O)OCc1ccccc1)C(=O)N[C@@H](Cc1ccccc1)C(=O)N[C@H](/C=C/C(=O)N1CCC(O)C1)CCC(N)=O (some centres not stated) | – | < 3.49 | > 320 µM | 1200 M⁻¹ s⁻¹ | – | – |
| CC(C)C[C@H](NC(=O)OCc1ccccc1)C(=O)N[C@@H](Cc1ccccc1)C(=O)N[C@H](/C=C/C(=O)N1CCc2cccc(Cl)c21)CCC(N)=O | – | 4.25 | > 320 µM | 5400 M⁻¹ s⁻¹ | – | – |
| CC(C)C[C@H](NC(=O)OCc1ccccc1)C(=O)N[C@@H](Cc1ccccc1)C(=O)N[C@H](/C=C/C(=O)n1cccc1)CCC(N)=O | – | 5.85 | 6.3 µM | 400000 M⁻¹ s⁻¹ | – | – |
| CC(C)C[C@H](NC(=O)OCc1ccccc1)C(=O)N[C@@H](Cc1ccccc1)C(=O)N[C@H](/C=C/C(=O)c1ccc(C#N)cc1)CCC(N)=O | – | 4.30 | > 320 µM | 200000 M⁻¹ s⁻¹ | – | – |
| COc1ccc2c(c1)CCN2C(=O)/C=C/[C@H](CCC(N)=O)NC(=O)[C@H](Cc1ccccc1)NC(=O)[C@H](CC(C)C)NC(=O)OCc1ccccc1 | – | < 3.49 | > 320 µM | 3400 M⁻¹ s⁻¹ | – | – |
| CC(C)C[C@H](NC(=O)OCc1ccccc1)C(=O)N[C@@H](Cc1ccccc1)C(=O)N[C@H](/C=C/C(=O)N(C)c1ccccc1)CCC(N)=O | – | 3.80 | > 320 µM | 580 M⁻¹ s⁻¹ | – | – |
| CC(C)C[C@H](NC(=O)OCc1ccccc1)C(=O)N[C@@H](Cc1ccccc1)C(=O)N[C@H](/C=C/C(=O)N1CCCC1)CCC(N)=O | – | 4.66 | > 100 µM | 2100 M⁻¹ s⁻¹ | – | – |
| CC(C)C[C@H](NC(=O)OCc1ccccc1)C(=O)N[C@@H](Cc1ccccc1)C(=O)N[C@H](/C=C/S(=O)(=O)c1ccccc1)CCC(N)=O | – | 3.70 | > 320 µM | 270 M⁻¹ s⁻¹ | – | – |
| CC(C)C[C@H](NC(=O)OCc1ccccc1)C(=O)N[C@@H](Cc1ccccc1)C(=O)N[C@H](/C=C/C(=O)N(C)O)CCC(N)=O | – | 4.38 | 42 µM | 1800 M⁻¹ s⁻¹ | – | – |
| CC(C)C[C@H](NC(=O)OCc1ccccc1)C(=O)N[C@@H](Cc1ccccc1)C(=O)N[C@H](/C=C/C(=O)N1CCc2ccccc21)CCC(N)=O | > 80 min | 4.80 | > 320 µM | 6500 M⁻¹ s⁻¹ | – | – |
| CC(C)C[C@H](NC(=O)OCc1ccccc1)C(=O)N[C@@H](Cc1ccccc1)C(=O)N[C@H](/C=C/S(C)(=O)=O)CCC(N)=O | – | < 3.49 | > 320 µM | 160 M⁻¹ s⁻¹ | – | – |
| CC(C)C[C@H](NC(=O)OCc1ccccc1)C(=O)N[C@@H](Cc1ccccc1)C(=O)N[C@H](/C=C/C(=O)N1CCOC1=O)CCC(N)=O | – | 5.80 | > 100 µM | 600000 M⁻¹ s⁻¹ | – | Yes |
| CC(C)C[C@H](NC(=O)OCc1ccccc1)C(=O)N[C@@H](Cc1ccccc1)C(=O)N[C@H](/C=C/C(=O)N1CCc2cc(Br)ccc21)CCC(N)=O | – | 4.33 | > 320 µM | 5800 M⁻¹ s⁻¹ | – | – |
| CC(C)C[C@H](NC(=O)OCc1ccccc1)C(=O)N[C@@H](Cc1ccccc1)C(=O)N[C@H](/C=C/c1ccno1)CCC(N)=O | – | < 3.49 | > 320 µM | 600 M⁻¹ s⁻¹ | – | – |
| CCOC(=O)/C(F)=C/[C@H](CCC(N)=O)NC(=O)[C@H](Cc1ccccc1)NC(=O)[C@H](CC(C)C)NC(=O)OCc1ccccc1 | – | < 3.49 | > 320 µM | 60 M⁻¹ s⁻¹ | – | – |
